pIC50: −log10 of the molar value.
Key:
[1] = Selectivity index, ratio of IC50 for cytotoxicity against human HDF cells to IC50 for anticancer activity against human SK-OV-3 cells; format: cell-based; conditions: HDF cells versus SK-OV-3 cells, read-out: Ratio IC50
SK-OV-3 = assay: Anticancer activity against human SK-OV-3 cells assessed as cell growth inhibition incubated for 72 hrs by SRB assay; format: functional, cell-based; conditions: Homo sapiens, SK-OV-3, 72 h
PC-3 = assay: Anticancer activity against human PC-3 cells assessed as cell growth inhibition incubated for 72 hrs by SRB assay; format: functional, cell-based; conditions: Homo sapiens, PC-3, 72 h
[2] = Selectivity index, ratio of IC50 for cytotoxicity against human HDF cells to IC50 for anticancer activity against human PC-3 cells; format: toxicity, cell-based; conditions: HDF cells versus PC-3 cells, read-out: Ratio IC50
[3] = Cytotoxicity against human HDF cells assessed as cell growth inhibition incubated for 72 hrs by SRB assay; format: toxicity, cell-based; conditions: HDF cells (normal human dermal fibroblasts, NHDF)
[4] = Selectivity index, ratio of IC50 for cytotoxicity against human HDF cells to IC50 for anticancer activity against human SK-BR-3 cells; format: toxicity, cell-based; conditions: HDF cells versus SK-BR-3 cells, read-out: Ratio IC50
SK-BR-3 = assay: Anticancer activity against human SK-BR-3 cells assessed as cell growth inhibition incubated for 72 hrs by SRB assay; format: functional, cell-based; conditions: Homo sapiens, SK-BR-3, 72 h

| Compound | selectivity ratio [1] | pIC50 (SK-OV-3) | pIC50 (PC-3) | selectivity ratio [2] | IC50 at 72 h [3] | selectivity ratio [4] | pIC50 (SK-BR-3) |
| --- | --- | --- | --- | --- | --- | --- | --- |
| CO[C@H]1/C=C\C=C(/C)C(=O)NC2=CC(=O)C(NCc3cn(Cc4ccc(F)cc4)nn3)=C(C[C@@H](C)C[C@H](OC)[C@H](O)[C@@H](C)/C=C(\C)[C@@H]1OC(N)=O)C2=O | 1.11 | 5.82 | 5.80 | 1.07 | 1690 nM | 1.09 | 5.81 |
| CO[C@H]1/C=C\C=C(/C)C(=O)NC2=CC(=O)C(NCCn3cc(C(=O)O)nn3)=C(C[C@@H](C)C[C@H](OC)[C@H](O)[C@@H](C)/C=C(\C)[C@@H]1OC(N)=O)C2=O | 2.06 | 6.06 | 6.06 | 2.06 | 1790 nM | 2.21 | 6.09 |
| CO[C@H]1/C=C\C=C(/C)C(=O)NC2=CC(=O)C(NCc3cn(Cc4ccc(C#N)cc4)nn3)=C(C[C@@H](C)C[C@H](OC)[C@H](O)[C@@H](C)/C=C(\C)[C@@H]1OC(N)=O)C2=O | 1.89 | 6.03 | 6.07 | 2.09 | 1780 nM | 1.91 | 6.03 |
| CO[C@H]1/C=C\C=C(/C)C(=O)NC2=CC(=O)C(NCc3cn(CCN4C(=O)c5ccccc5C4=O)nn3)=C(C[C@@H](C)C[C@H](OC)[C@H](O)[C@@H](C)/C=C(\C)[C@@H]1OC(N)=O)C2=O | 1.53 | 5.89 | 5.89 | 1.52 | 1960 nM | 1.61 | 5.91 |
| C#CCNC1=C2C[C@@H](C)C[C@H](OC)[C@H](O)[C@@H](C)/C=C(\C)[C@H](OC(N)=O)[C@@H](OC)/C=C\C=C(/C)C(=O)NC(=CC1=O)C2=O | 1.74 | 5.37 | 5.39 | 1.8 | 7360 nM | 1.84 | 5.40 |
| CO[C@H]1/C=C\C=C(/C)C(=O)NC2=CC(=O)C(NCc3cn([C@@H]4O[C@H](CO)[C@H](O)[C@H](O)[C@H]4O)nn3)=C(C[C@@H](C)C[C@H](OC)[C@H](O)[C@@H](C)/C=C(\C)[C@@H]1OC(N)=O)C2=O | 1.87 | 6.28 | 6.27 | 1.83 | 990 nM | 1.74 | 6.24 |
| COC(=O)C[C@H]1O[C@@H](n2cc(CNC3=C4C[C@@H](C)C[C@H](OC)[C@H](O)[C@@H](C)/C=C(\C)[C@H](OC(N)=O)[C@@H](OC)/C=C\C=C(/C)C(=O)NC(=CC3=O)C4=O)nn2)[C@H](O)[C@@H](O)[C@@H]1O | 1.49 | 5.83 | 5.88 | 1.65 | 2190 nM | 1.55 | 5.85 |
| CO[C@H]1/C=C\C=C(/C)C(=O)NC2=CC(=O)C(NCCN=[N+]=[N-])=C(C[C@@H](C)C[C@H](OC)[C@H](O)[C@@H](C)/C=C(\C)[C@@H]1OC(N)=O)C2=O | 2.17 | 6.02 | 6.04 | 2.26 | 2060 nM | 2.19 | 6.03 |
| CO[C@H]1/C=C\C=C(/C)C(=O)NC2=CC(=O)C(NCc3cn(CC4CCCCC4)nn3)=C(C[C@@H](C)C[C@H](OC)[C@H](O)[C@@H](C)/C=C(\C)[C@@H]1OC(N)=O)C2=O | 1.48 | 5.85 | 5.86 | 1.53 | 2090 nM | 1.53 | 5.86 |
| CO[C@H]1/C=C\C=C(/C)C(=O)NC2=CC(=O)C(NCc3cn([C@@H]4OC[C@@H](OC(C)=O)[C@H](OC(C)=O)[C@H]4OC(C)=O)nn3)=C(C[C@@H](C)C[C@H](OC)[C@H](O)[C@@H](C)/C=C(\C)[C@@H]1OC(N)=O)C2=O | 1.23 | 5.43 | 5.45 | 1.3 | 4590 nM | 1.05 | 5.36 |
| CO[C@H]1/C=C\C=C(/C)C(=O)NC2=CC(=O)C(NCc3cn(Cc4ccccc4)nn3)=C(C[C@@H](C)C[C@H](OC)[C@H](O)[C@@H](C)/C=C(\C)[C@@H]1OC(N)=O)C2=O | 2.03 | 6.20 | 6.28 | 2.46 | 1280 nM | 2.56 | 6.30 |
| CO[C@H]1/C=C\C=C(/C)C(=O)NC2=CC(=O)C(NCc3cn([C@@H]4O[C@H](CO)[C@@H](O[C@@H]5O[C@H](CO)[C@H](O)[C@H](O)[C@H]5O)[C@H](O)[C@H]4O)nn3)=C(C[C@@H](C)C[C@H](OC)[C@H](O)[C@@H](C)/C=C(\C)[C@@H]1OC(N)=O)C2=O | 1.45 | 5.55 | 5.55 | 1.45 | 4110 nM | 1.44 | 5.55 |

Source: ChEMBL document CHEMBL5370558, “Modifications of geldanamycin via CuAAC altering affinity to chaperone protein Hsp90 and cytotoxicity” (Eur J Med Chem, 2023)
